In patent US20120308554A1, “VEGF-D/VEGFR2/3-MEDIATED REGULATION OF DENDRITES” (UNIVERSITAT HEIDELBERG, priority 2011, published 2012):

Tests used:
[1] = system: cultured hippocampal neurons; assay: Whole-cell patch clamp recordings of cultured hippocampal neurons; assay type: cell-based, mice
Source text: Whole-cell patch clamp recordings were made at room temperature from cultured hippocampal neurons plated on coverslips secured with a platinum ring in a recording chamber (Open access chamber-1, Science Products GmbH, Hofheim, Germany) mounted on a fixed-stage upright microscope (BX51WI, Olympus, Hamburg, Germany). Differential interference contrast optics, infrared illumination and a CCD camera (PCO, Visitron Systems, Puchheim, Germany) connected to a contrast enhancement unit (Argus, Hamamatsu, Herrsching am Ammersee, Germany) were used to view neurons on a video monitor. Recordings were made with a Multiclamp 700A amplifier, digitized through a Digidata 1322A A/D converter and acquired using pClamp software (Molecular Devices, CA, USA). All membrane potentials have been corrected for the calculated junction potential of −11 mV (JPCalc program by Dr. Peter H. Barry). mEPSCs and whole-cell AMPA (10 μM, 6 ml/min, Biotrend) responses were recorded as known in the art except for the solutions and that a holding potential of −71 mV was used and both TTX (1 μM, Biotrend, Cologne, Germany) and gabazine (5 μM, Biotrend) were included in the ACSF. TTX was applied before gabazine to prevent the induction of action potential bursting. Access (range: 7-18 MU) and membrane resistance (see Table 1) were monitored before and after mEPSC recordings and data was rejected if changes greater than 20% occurred.
Patch electrodes (3-4 MU) were made from borosilicate glass (1.5 mm, WPI, Sarasota, Fla., USA) and filled with intracellular solution (containing in mM: KCH3SO4, 145; NaCl, 8; HEPES, 10; K2-phosphocreatine, 10; Mgt-ATP, 4; Na3-GTP, 0.3; pH 7.35 with KOH). The extracellular solution was an artificial cerebrospinal fluid (ACSF, in mM: NaCl, 125; KCl, 3.5; MgCl2, 1.3; NaH2PO4, 1.2; CaCl2, 2.4; glucose, 25; NaHCO3, 26; gassed with 95% O2 and 5% CO2).

hippocampal neurons [2] = assay: Morphometric analyses (total dendritic length, Sholl analysis, spine density) of cultured hippocampal neurons; assay type: cell-based, mice
VEGFD = assay: Immunoblot analysis of VEGFD expression in hippocampal neurons; assay type: cell-based, mice; conditions: hippocampal neurons infected with rAAV
Source text: C: Immunoblot analysis of VEGFD expression in uninfected hippocampal neurons and in hippocampal neurons infected with the indicated rAAVs. Tubulin was used for loading control. Neurons infected with rAAV-emptymC, rAAV-shVEGFD and rAAV-shSCR were detected by DsRed immunostaining (see above).
Mouse monoclonal antibody to tubulin (Sigma); mouse monoclonal NeuN antibody (Chemicon); mouse monoclonal anti-phospho-p38 MAP kinase antibody (BD); rabbit polyclonal antibodies to the HA tag, anti-VEGFD antibodies, anti-VEGFR3 (Santa Cruz); rabbit polyclonal antibody to phosphor-CREB (Upstate-Millipore); rabbit polyclonal antibody to phosphor-CaMKII (Promega); rabbit polyclonal antibodies to phosphor-MSK1, phosphor-ATF2, phosphor-ERK, phosphor-Akt, phosphor-MKK4, phosphor-JNK, phosphor-p70, phosphor-GSKα/β (Cell Signaling). Rabbit polyclonal antibodies to DsRed (Clontech). AlexaFluor 488-, AlexaFluor 594-, and AlexaFluor 633-labled secondary antibodies were from Molecular Probes (Eugene, Oreg., USA).

hippocampal neurons [3] = assay type: cell-based, mice; conditions: hippocampal neurons infected with rAAV
Source text: E: Analysis of apoptosis of hippocampal cultures uninfected or infected with the indicated rAAVs. Values are expressed as percentage of the total number of cells analyzed.

C57BL/6 mice = assay: Contextual fear conditioning; assay type: in vivo; conditions: versus rAAV-shSCR
Description: rAAVs were delivered by stereotaxic injection into the right dorsal hippocampus of 2 months old male C57BL/6 mice. For the Golgi staining-based morphometric analysis, viral particles were unilaterally injected over a period of 20 min at the following coordinates relative to Bregma: anteroposterior, −2.1 mm; mediolateral, −1.4 mm; dorsoventral, −1.4 to −1.8 mm from the skull surface. For behavior experiments mice were injected bilaterally.
The behavioral experiments started three weeks after stereotaxic delivery of rAAVs. Mice were habituated to the experimental room and handled once a day for three consecutive days before testing started. Two different sets of mice were used for Morris water maze and contextual fear conditioning experiments. At the end of the experiments, virus infection was assessed.
On the training day, mice were placed into the conditioning chamber (23×23×35 cm; TSE, Bad Homburg, Germany) and received a 2 second, 0.5 mA scrambled foot shock 148 seconds after placement into the chamber. Mice were removed from the chamber 30 seconds after the shock. During testing, mice received one 5 minute exposure to the same context in the absence of foot shock 24 hours after conditioning. Freezing, defined as absence of movement except for respiration, was scored continuously during training and testing sessions.

In the case of “shVEGFD: shRNA targeting mouse VEGFD mRNA (GGGCTTCAGGAGCGAACAT; SEQ ID NO: 1), expressed from rAAV vector or plasmid with U6 promoter”, the AMPA response amplitudes ([1]; bath applied AMPA 10 μM) is reported as “smaller”, the “AP induc thresh (current injection required to induce an action potential)” value ([1]; infected neurons) is reported as 162 ± 14 pA and the “AP thresh (membrane potential at which action potentials initiate)” value ([1]; infected neurons) is reported as −46.5 ± 1.1 mV. The “Cm (membrane capacitance)” value ([1]; infected neurons) was 68.3 ± 3.3 pF, the “Rm (membrane resistance)” value ([1]; infected neurons) was 316 ± 19 MΩ and the “Vrest (resting membrane potential)” value ([1]; infected neurons) was −82.9 ± 1.9 mV. The “mEPSC τ decay” value ([1]; infected neurons) was 4.14 ± 0.15 ms, the “mEPSC τ rise” value ([1]; infected neurons) was 2.91 ± 0.10 ms and the “AP induc thresh (current injection required to induce an action potential)” value ([1]; transfected neurons) was 149 ± 14 pA. For the same substance, the “AP thresh (membrane potential at which action potentials initiate)” value ([1]; transfected neurons) was −45.6 ± 1.6 mV, the “Cm (membrane capacitance)” value ([1]; transfected neurons) was 59.7 ± 3.8 pF and the “Rm (membrane resistance)” value ([1]; transfected neurons) was 352 ± 29 MΩ. The “Vrest (resting membrane potential)” value ([1]; transfected neurons) was −79.7 ± 2.0 mV, the “mEPSC τ decay” value ([1]; transfected neurons) was 3.82 ± 0.26 ms and the “mEPSC τ rise” value ([1]; transfected neurons) was 2.82 ± 0.23 ms. For the same substance, the “mEPSC inter-event intervals (IEIs, 1/frequency)” value ([1]; versus respective shSCR expressing controls) was “longer mEPSC inter-event intervals”, the “total dendritic length and dendritic complexity (Sholl analysis)” value (hippocampal neurons [2]; neurons expressing the construct versus control constructs) was “less complex dendritic arbor and a reduction in total dendritic length” and the “spine density (number of spines/20 μm)” value (hippocampal neurons [2]; transfected hippocampal neurons) was 6.52±0.51 spines/20 μm. For the same substance, the “VEGFD protein expression (immunoblot)” value (VEGFD) was “blocked VEGFD protein expression”, the cell death (hippocampal neurons [3]) was “no increase in cell death” and the “basal exploratory activity and reaction to shock during training” value (C57BL/6 mice) was “not different between the two groups”. The “freezing during the 24-hour test session” value (C57BL/6 mice) was “significantly lower levels of freezing”.
